The text below walks through data of US8063095B2, “IAP BIR domain binding compounds” (Pharmascience Inc., priority 2005, dated 2011).

Assay [1] has as its system SKOV-3 (ovarian) cancer cells. As to the kind of experiment: Cell viability (MTT) assay, SKOV3 cells. Particulars: 72 hours, MTT based assay; compounds added either alone or in presence of 1-3 ng/ml of TRAIL. As to the method:
(§1) MDA-MD-231 (breast) and SKOV-3 (ovarian) cancer cells were cultured in RPMI1640 media supplemented with 10% FBS and 100 units/mL of Penicillin and Steptomycin.
(§2) Viability assays were done on a number of cells including MDA-MB-231, SKOV-3, H460, PC3, HCT-116, and SW480 cells. Cells were seeded in 96 well plates at a respective density of 5000 and 2000 cells per well and incubated at 37° C. in presence of 5% CO2 for 24 hours. Selected compounds were diluted into the media at various concentration ranging from 0.01 uM up to 100 uM. Diluted compounds were added onto the MDA-MB-231 cells. For the MDA-MB-231 SKOV3, H460, PC3, HCT-116, and SW480 cells, the compounds were added either alone or in presence of 1-3 ng/ml of TRAIL. After 72 hours cellular viability was evaluated by MTT based assays.
For orientation: Tetrazolium assays rely on reduction of a dye to a coloured formazan, in cell work by metabolically active cells.

The subject of assay [2] is MDA-MB-231 (breast) cancer cells. The experiment in a line: Cell viability (MTT) assay, MDA cells. The conditions noted are these: MTT based assay. As to the method:
as §1, §2

As for `CN[C@@H](C)C(=O)N[C@@H](CCCCNC(=O)NCCCC[C@H](NC(=O)[C@H](C)NC)C(=O)N1CCC[C@H]1CN(CCc1ccccc1)C(=O)C(F)(F)F)C(=O)N1CCC[C@H]1CN(CCc1ccccc1)C(=O)C(F)(F)F` [Compound 47], the EC50 in assay [1] was less than 1000 nM.

The compound `CN[C@@H](C)C(=O)N[C@H](C(=O)N1CCC[C@H]1C(=O)N[C@@H]1CCCc2ccccc21)[C@@H](C)OCCCCCCO[C@H](C)[C@H](NC(=O)[C@H](C)NC)C(=O)N1CCC[C@H]1C(=O)N[C@@H]1CCCc2ccccc21` [Compound 25] had an EC50 in assay [2] (Homo sapiens, MDA-MB-231, 72 h) of less than 100 nM.

In assay [2] (Homo sapiens, MDA-MB-231, 72 h), `CN[C@@H](C)C(=O)N[C@H](C(=O)N1CCC[C@H]1CN(CCc1ccccc1)C(C)=O)[C@@H](C)OCC#CC#CCO[C@H](C)[C@H](NC(=O)[C@H](C)NC)C(=O)N1CCC[C@H]1CN(CCc1ccccc1)C(C)=O` [Compound 5] returned an EC50 of less than 100 nM.

In assay [2] (72 hours), `CN[C@@H](C)C(=O)N[C@@H](CCC(=O)NCCNC(=O)CC[C@H](NC(=O)[C@H](C)NC)C(=O)N1CCC[C@H]1CN(CCc1ccccc1)C(=O)C(F)(F)F)C(=O)N1CCC[C@H]1CN(CCc1ccccc1)C(=O)C(F)(F)F` [Compound 19] had an EC50 of less than 1000 nM.

Turning to `CN[C@@H](C)C(=O)NC(CCCNC(=O)CCC(=O)NCCC[C@H](NC(=O)[C@H](C)NC)C(=O)N1CCC[C@H]1CN(CCc1ccccc1)S(=O)(=O)c1ccc(F)cc1)C(=O)N1CCC[C@H]1CN(CCc1ccccc1)S(=O)(=O)c1ccc(F)cc1` (some centres unmarked) [Compound 40], the EC50 in assay [1] was less than 1000 nM.

Take `CN[C@@H](C)C(=O)N[C@@H](CCCNC(=O)C(=O)NCCC[C@H](NC(=O)[C@H](C)NC)C(=O)N1CCC[C@H]1CN(CCc1ccccc1)S(=O)(=O)c1ccc(F)cc1)C(=O)N1CCC[C@H]1CN(CCc1ccccc1)S(=O)(=O)c1ccc(F)cc1` [Compound 41]: the EC50 in assay [1] is less than 1000 nM.

`CN[C@@H](C)C(=O)N[C@H](C(=O)N1CCC[C@H]1CN(CCc1ccccc1)C(=O)c1ccc(OC)cc1)[C@@H](C)OCC#CC#CCO[C@H](C)[C@H](NC(=O)[C@H](C)NC)C(=O)N1CCC[C@H]1CN(CCc1ccccc1)C(=O)c1ccc(OC)cc1` [Compound 9]: the EC50 in assay [2] (Homo sapiens, MDA-MB-231, 72 h) is less than 100 nM.

`CN[C@@H](C)C(=O)N[C@H](C(=O)N1CCC[C@H]1CN(CCc1ccccc1)S(C)(=O)=O)[C@@H](C)OCCCCCCO[C@H](C)[C@H](NC(=O)[C@H](C)NC)C(=O)N1CCC[C@H]1CN(CCc1ccccc1)S(C)(=O)=O` [Compound 37]: the EC50 in assay [1] is less than 100 nM.

Compound `CN[C@@H](C)C(=O)N[C@H](C(=O)N1CCC[C@H]1CN(CCc1ccccc1)C(=O)CNCc1ccccc1)[C@@H](C)OCC#CC#CCO[C@H](C)[C@H](NC(=O)[C@H](C)NC)C(=O)N1CCC[C@H]1CN(CCc1ccccc1)C(=O)CNCc1ccccc1` [Compound 10] registered an EC50 in assay [2] (Homo sapiens, MDA-MB-231, 72 h) of less than 100 nM.

Compound `CN[C@@H](C)C(=O)N[C@@H](CCC(=O)NCCNC(=O)CC[C@H](NC(=O)[C@H](C)NC)C(=O)N1CCC[C@H]1CN(CCc1ccccc1)C(=O)C(F)(F)F)C(=O)N1CCC[C@H]1CN(CCc1ccccc1)C(=O)C(F)(F)F` [Compound 31] showed an EC50 in assay [2] (72 hours) of less than 100 nM.

`CN[C@@H](C)C(=O)N[C@H](C(=O)N1CCC[C@H]1CN(CCc1ccccc1)C(=O)CF)[C@@H](C)OCC#CC#CCO[C@H](C)[C@H](NC(=O)[C@H](C)NC)C(=O)N1CCC[C@H]1CN(CCc1ccccc1)C(=O)CF` [Compound 29] returned an EC50 in assay [2] (Homo sapiens, MDA-MB-231, 72 hours) of less than 100 nM.

`CN[C@@H](C)C(=O)N[C@@H](CCC(=O)NCCNC(=O)CC[C@H](NC(=O)[C@H](C)NC)C(=O)N1CCC[C@H]1CN(CCc1ccccc1)C(=O)C(F)(F)F)C(=O)N1CCC[C@H]1CN(CCc1ccccc1)C(=O)C(F)(F)F` [Compound 30]: the EC50 in assay [2] (72 hours) was less than 100 nM.

On to `CN[C@@H](C)C(=O)N[C@@H](CCCNC(=O)CCCC(=O)NCCC[C@H](NC(=O)[C@H](C)NC)C(=O)N1CCC[C@H]1CN(CCc1ccccc1)S(=O)(=O)c1ccc(F)cc1)C(=O)N1CCC[C@H]1CN(CCc1ccccc1)S(=O)(=O)c1ccc(F)cc1` [Compound 43], for which the EC50 in assay [1] was less than 1000 nM.

For the compound `CN[C@@H](C)C(=O)NC(CCCNC(=O)c1ccc(C(=O)NCCC[C@H](NC(=O)[C@H](C)NC)C(=O)N2CCC[C@H]2C(=O)N[C@@H]2CCCc3ccccc32)cc1)C(=O)N1CCC[C@H]1CN(CCc1ccccc1)C(=O)C(F)(F)F` (some centres unmarked) [Compound 38], in assay [1], the EC50 is less than 100 nM.

On to `CN[C@@H](C)C(=O)N[C@@H](CC(=O)NCCNC(=O)C[C@H](NC(=O)[C@H](C)NC)C(=O)N1CCC[C@H]1CN(CCc1ccccc1)C(=O)C(F)(F)F)C(=O)N1CCC[C@H]1CN(CCc1ccccc1)C(=O)C(F)(F)F` [Compound 32], for which, in assay [1], the 50% effective concentration (EC50) is greater than 1000 nM.

On to `CN[C@@H](C)C(=O)NC(CCCNC(=O)c1ccc(C(=O)NCCC[C@H](NC(=O)[C@H](C)NC)C(=O)N2CCC[C@H]2CN(CCc2ccccc2)C(=O)C(F)(F)F)cc1)C(=O)N1CCC[C@H]1CN(CCc1ccccc1)C(=O)C(F)(F)F` (some centres unmarked) [Compound 39], for which the EC50 in assay [1] was less than 1000 nM.

With `CNCC(=O)N(CCc1ccccc1)C[C@@H]1CCCN1C(=O)[C@@H](NC(=O)[C@H](C)NC)[C@@H](C)OCC#CC#CCO[C@H](C)[C@H](NC(=O)[C@H](C)NC)C(=O)N1CCC[C@H]1CN(CCc1ccccc1)C(=O)CNC` [Compound 27], the EC50 in assay [2] (Homo sapiens, MDA-MB-231, 72 h) was less than 1000 nM.

In assay [2] (Homo sapiens, MDA-MB-231, 72 h), `CN[C@@H](C)C(=O)N[C@H](C(=O)N1CCC[C@H]1CN(CCc1ccccc1)C(=O)C(C)C)[C@@H](C)OCC#CC#CCO[C@H](C)[C@H](NC(=O)[C@H](C)NC)C(=O)N1CCC[C@H]1CN(CCc1ccccc1)C(=O)C(C)C` [Compound 26] registered an EC50 of less than 100 nM.

`CN[C@@H](C)C(=O)N[C@@H](CCC(=O)NCCNC(=O)CC[C@H](NC(=O)[C@H](C)NC)C(=O)N1CCC[C@H]1CN(CCc1ccccc1)C(=O)C(F)(F)F)C(=O)N1CCC[C@H]1CN(CCc1ccccc1)C(=O)C(F)(F)F` [Compound 22] returned an EC50 in assay [2] (72 hours) of less than 100 nM.

`CN[C@@H](C)C(=O)N[C@@H](CC(=O)NCCNC(=O)C[C@H](NC(=O)[C@H](C)NC)C(=O)N1CCC[C@H]1CN(CCc1ccccc1)C(=O)C(F)(F)F)C(=O)N1CCC[C@H]1CN(CCc1ccccc1)C(=O)C(F)(F)F` [Compound 35] came in with a 50% effective concentration (EC50) in assay [2] (Homo sapiens, MDA-MB-231, 72 h) of less than 1000 nM.

As for `CN[C@@H](C)C(=O)N[C@@H](CCCNC(=O)CCCCC(=O)NCCC[C@H](NC(=O)[C@H](C)NC)C(=O)N1CCC[C@H]1CN(CCc1ccccc1)S(=O)(=O)c1ccc(F)cc1)C(=O)N1CCC[C@H]1CN(CCc1ccccc1)S(=O)(=O)c1ccc(F)cc1` [Compound 44], in assay [1], the EC50 is less than 1000 nM.

`CN[C@@H](C)C(=O)N[C@@H](CCCNC(=O)NCCC[C@H](NC(=O)[C@H](C)NC)C(=O)N1CCC[C@H]1C(=O)N[C@@H]1CCCc2ccccc21)C(=O)N1CCC[C@H]1C(=O)N[C@@H]1CCCc2ccccc21` [Compound 16]: the EC50 in assay [2] (Homo sapiens, MDA-MB-231, 72 h) is less than 100 nM.

In assay [2] (Homo sapiens, MDA-MB-231, 72 h), `CN[C@@H](C)C(=O)N[C@@H](CCC(=O)NCc1ccc(CNC(=O)CC[C@H](NC(=O)[C@H](C)NC)C(=O)N2CCC[C@H]2CN(CCc2ccccc2)C(=O)C(F)(F)F)cc1)C(=O)N1CCC[C@H]1CN(CCc1ccccc1)C(=O)C(F)(F)F` [Compound 17] returned an EC50 of less than 1000 nM.

In the case of `CN[C@@H](C)C(=O)N[C@@H](COCC#CC#CCOC[C@H](NC(=O)[C@H](C)NC)C(=O)N1CCC[C@H]1CN(CCc1ccccc1)C(=O)C(F)(F)F)C(=O)N1CCC[C@H]1CN(CCc1ccccc1)C(=O)C(F)(F)F` [Compound 24], the EC50 in assay [2] (Homo sapiens, MDA-MB-231, 72 h) is less than 100 nM.

Take `CN[C@@H](C)C(=O)N[C@H](C(=O)N1CCC[C@H]1CN(CCc1ccccc1)C(=O)C(F)(F)F)[C@@H](C)OCCCCCCO[C@H](C)[C@H](NC(=O)[C@H](C)NC)C(=O)N1CCC[C@H]1CN(CCc1ccccc1)C(=O)C(F)(F)F` [Compound 36]: the EC50 in assay [1] is less than 100 nM.

Compound `CN[C@@H](C)C(=O)N[C@@H](CCC(=O)NCCNC(=O)CC[C@H](NC(=O)[C@H](C)NC)C(=O)N1CCC[C@H]1CN(CCc1ccccc1)C(=O)C(F)(F)F)C(=O)N1CCC[C@H]1CN(CCc1ccccc1)C(=O)C(F)(F)F` [Compound 21] came in with an EC50 in assay [2] (72 hours) of less than 1000 nM.

On to `CN[C@@H](C)C(=O)NC(CCCNC(=O)c1ccc(C(=O)NCCC[C@H](NC(=O)[C@H](C)NC)C(=O)N2CCC[C@H]2C(=O)N[C@@H]2CCCc3ccccc32)cc1)C(=O)N1CCC[C@H]1C(=O)N[C@@H]1CCCc2ccccc21` (some centres unmarked) [Compound 15], for which, in assay [2] (Homo sapiens, MDA-MB-231, 72 h), the EC50 is less than 100 nM.

Consider `CN[C@@H](C)C(=O)N[C@@H](CCCNC(=O)c1ccc(C(=O)NCCC[C@H](NC(=O)[C@H](C)NC)C(=O)N2CCC[C@H]2CN(CCc2ccccc2)S(=O)(=O)c2ccc(F)cc2)cc1)C(=O)N1CCC[C@H]1CN(CCc1ccccc1)S(=O)(=O)c1ccc(F)cc1` [Compound 45], for which the EC50 in assay [1] is less than 1000 nM.

`CN[C@@H](C)C(=O)N[C@H](C(=O)N1CCC[C@H]1CN(CCc1ccccc1)C(=O)C(F)F)[C@@H](C)OCC#CC#CCO[C@H](C)[C@H](NC(=O)[C@H](C)NC)C(=O)N1CCC[C@H]1CN(CCc1ccccc1)C(=O)C(F)F` [Compound 28] came in with an EC50 in assay [2] (Homo sapiens, MDA-MB-231, 72 h) of less than 100 nM.

In assay [2] (72 hours), `CN[C@@H](C)C(=O)N[C@@H](CCC(=O)NCCNC(=O)CC[C@H](NC(=O)[C@H](C)NC)C(=O)N1CCC[C@H]1CN(CCc1ccccc1)C(=O)C(F)(F)F)C(=O)N1CCC[C@H]1CN(CCc1ccccc1)C(=O)C(F)(F)F` [Compound 18] returned an EC50 of less than 1000 nM.

For the compound `CN[C@@H](C)C(=O)N[C@@H](CCCNC(=O)NCCC[C@H](NC(=O)[C@H](C)NC)C(=O)N1CCC[C@H]1CN(CCc1ccccc1)S(=O)(=O)c1ccc(F)cc1)C(=O)N1CCC[C@H]1CN(CCc1ccccc1)S(=O)(=O)c1ccc(F)cc1` [Compound 42], the EC50 in assay [1] was greater than 1000 nM.

In the case of `CN[C@@H](C)C(=O)N[C@@H](CCC(=O)NCCNC(=O)CC[C@H](NC(=O)[C@H](C)NC)C(=O)N1CCC[C@H]1CN(CCc1ccccc1)C(=O)C(F)(F)F)C(=O)N1CCC[C@H]1CN(CCc1ccccc1)C(=O)C(F)(F)F` [Compound 20], the EC50 in assay [2] (72 hours) is less than 1000 nM.

What is called EC50 is the concentration at which the effect is half-maximal.
